Experimental data published in PubChem BioAssay AID256 (DTP/NCI, 2004).
Several values for one entry are separate records, joined by “and”; a condition that tells them apart may be missing. Identical values can stand only once. Inconclusive results and toxic doses are left out. How the source made its calls: active means survival T/C of 150% or more; inactive means T/C below 125% in these data.

System: CD2F1 mice, L1210 leukemia ip, survival T/C
Experiment: NCI In Vivo Anticancer Drug Screen. Data for tumor model L1210 Leukemia (intraperitoneal) in CD2F1 (CDF1) mice
Details: endpoint: mean survival time, higher = longer survival
How it was run: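 Mice carrying a transplanted tumor received test compound or vehicle alone. The value is the measurement in the treated group divided by that in the vehicle-treated control group.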

[1] = dose: 100.0 mg/kg/injection, schedule: Q01DX001 (ip), vehicle: saline
[2] = dose: 200.0 mg/kg/injection, schedule: Q01DX001 (ip), vehicle: saline
[3] = dose: 400.0 mg/kg/injection, schedule: Q01DX001 (ip), vehicle: saline

Measured: T/C

CC(=O)Nc1nnc(-c2ccc([N+](=O)[O-])o2)s1
inactive: dose: 75.0 mg/kg/injection, schedule: Q04DX003 (ip), vehicle: saline 97 % of control | dose: 150.0 mg/kg/injection, schedule: Q04DX003 (ip), vehicle: saline 100 % of control | dose: 300.0 mg/kg/injection, schedule: Q04DX003 (ip), vehicle: saline 97 % of control

S=c1[nH]nc2n1NC(c1ccoc1)=NN2
inactive: dose: 25.0 mg/kg/injection, schedule: Q04DX003 (ip), vehicle: saline with Tween-80 96 % of control | dose: 50.0 mg/kg/injection, schedule: Q04DX003 (ip), vehicle: saline with Tween-80 100 % of control | dose: 100.0 mg/kg/injection, schedule: Q04DX003 (ip), vehicle: saline with Tween-80 90 % of control and 93 % of control | dose: 200.0 mg/kg/injection, schedule: Q04DX003 (ip), vehicle: saline with Tween-80 107 % of control

CCCCCCCCCCCCCCCC(=O)N(CCCN)C(C)(C)CCC(C)(C)N(CCCN)C(=O)CCCCCCCCCCCCCCC
inactive: dose: 1.56 mg/kg/injection, schedule: Q01DX009 (ip), vehicle: water 106 % of control | dose: 3.13 mg/kg/injection, schedule: Q01DX009 (ip), vehicle: water 98 % of control | dose: 6.25 mg/kg/injection, schedule: Q01DX009 (ip), vehicle: water 104 % of control | dose: 12.5 mg/kg/injection, schedule: Q01DX009 (ip), vehicle: water 102 % of control | dose: 25.0 mg/kg/injection, schedule: Q01DX009 (ip), vehicle: water 89 % of control and 95 % of control

Cc1ncc(CO)c(/C=N/NC(N)=S)c1O
inactive: [1] 101 % of control | [2] 100 % of control | [3] 101 % of control

S=c1[nH]cc[nH]1
inactive: [1] 103 % of control | [2] 100 % of control | [3] 96 % of control

COc1ccc(CC(C)NC(=O)c2ccc(OC)c(OC)c2)cc1OC (stereo not drawn)
inactive: dose: 12.5 mg/kg/injection, schedule: Q01DX009 (ip), vehicle: other 105 % of control | dose: 25.0 mg/kg/injection, schedule: Q01DX009 (ip), vehicle: other 94 % of control | dose: 50.0 mg/kg/injection, schedule: Q01DX009 (ip), vehicle: other 96 % of control | dose: 100.0 mg/kg/injection, schedule: Q01DX009 (ip), vehicle: other 93 % of control | dose: 200.0 mg/kg/injection, schedule: Q01DX009 (ip), vehicle: other 94 % of control
